Data reported in patent publication US20240124491A1, “METHODS AND COMPOUNDS FOR TREATING FRIEDREICH'S ATAXIA” (Design Therapeutics, Inc., priority 2021, published 2024).

What follows are compounds tested on human FXN (assay: EC50 assay: FXN mRNA expression by qRT-PCR in GM15850 cells after 48 hrs compound treatment). Conditions: Homo sapiens, 48 hrs incubation, hFXN expression normalized to hGAPDH (qRT-PCR), read-out: EC50 WT (nM, 48 hr).
Format: cell-based
Outline: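 FXN transcript, normalized to GAPDH by TaqMan qRT-PCR, read out after 48 hrs of compound on GM15850 cells plated at 150,000 per well. Dosing used five 3-fold steps from 150 nM final, vehicle 0.01% DMSO.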
Compound `Cc1sc2c(c1C)C(c1ccc(Cl)cc1)=N[C@@H](CC(=O)N1CCC(C#CC#CCNC(=O)CCNC(=O)c3nc(NC(=O)CCNC(=O)c4cc(NC(=O)c5nc(NC(=O)CCNC(=O)c6cc(NC(=O)c7nccn7C)cn6C)cn5C)cn4C)cn3C)CC1)c1nnc(C)n1-2` [Compound 164] has an EC50 greater than 500 nM.
With `CC(=O)Nc1c(F)cc(C(=O)NC2CCN(CCOCCOCCOCCOCCOCCOCCOCCOCCNC(=O)CCNC(=O)c3nc(NC(=O)CCNC(=O)c4cc(NC(=O)c5nc(NC(=O)CCNC(=O)c6cc(NC(=O)c7nccn7C)cn6C)cn5C)cn4C)cn3C)CC2)cc1O[C@@H](C)c1ccccc1` [Compound 48] the EC50 was greater than 500 nM.
For `COCCOCCOCCOCCOCCOCCOCCOCCOCCOCCOCCOCCOCCOCCOCCOCCC(=O)N(CC#CC#Cc1ccc(NC(=O)C[C@@H]2N=C(c3ccc(Cl)cc3)c3c(sc(C)c3C)-n3c(C)nnc32)cc1)CCOCCOCCOCCOCCOCCNC(=O)CCNC(=O)c1nc(NC(=O)CCNC(=O)c2cc(NC(=O)c3nc(NC(=O)CCNC(=O)c4cc(NC(=O)c5nccn5C)cn4C)cn3C)cn2C)cn1C` [Compound 58], the EC50 was 100 to 500 nM.
`Cc1sc2c(c1C)C(c1ccc(Cl)cc1)=N[C@@H](CC(=O)NC1CCN(CCN3CCN(CCOCCOCCOCCOCCOCCOCCNC(=O)CCNC(=O)c4nc(NC(=O)CCNC(=O)c5cc(NC(=O)c6nc(NC(=O)CCNC(=O)c7cc(NC(=O)c8nccn8C)cn7C)cn6C)cn5C)cn4C)CC3)CC1)c1nnc(C)n1-2` [Compound 91] gave an EC50 of less than 100 nM.
In the case of `COCCOCCOCCOCCOCCOCCOCCOCCOCCOCCOCCOCCOCCOCCOCCOCCC(=O)N1CCC(NC(=O)CCOCCOCCOCCN2CCC(NC(=O)C[C@@H]3N=C(c4ccc(Cl)cc4)c4c(sc(C)c4C)-n4c(C)nnc43)CC2)(C(=O)NCCOCCOCCOCCOCCNC(=O)CCNC(=O)c2nc(NC(=O)CCNC(=O)c3cc(NC(=O)c4nc(NC(=O)CCNC(=O)c5cc(NC(=O)c6nccn6C)cn5C)cn4C)cn3C)cn2C)CC1` [Compound 74], the EC50 was greater than 500 nM.
`Cc1sc2c(c1C)C(c1ccc(Cl)cc1)=N[C@@H](CC(=O)Nc1ccc(N3CCN(CCOCCOCCOCCOCCOCCOCCOCCNC(=O)CCNC(=O)c4nc(NC(=O)CCNC(=O)c5cc(NC(=O)c6nc(NC(=O)CCNC(=O)c7cc(NC(=O)c8nccn8C)cn7C)cn6C)cn5C)cn4C)CC3)cc1)c1nnc(C)n1-2` [Compound 2] was tested, and the EC50 was less than 100 nM.
`Cc1sc2c(c1C)C(c1ccc(Cl)cc1)=N[C@@H](CC(=O)NC1CCN(C(C)(C)C#CC#CCNCCOCCOCCOCCOCCOCCNC(=O)CCNC(=O)c3nc(NC(=O)CCNC(=O)c4cc(NC(=O)c5nc(NC(=O)CCNC(=O)c6cc(NC(=O)c7nccn7C)cn6C)cn5C)cn4C)cn3C)CC1)c1nnc(C)n1-2` [Compound 159] was tested, and the EC50 was less than 100 nM.
`Cc1sc2c(c1C)C(c1ccc(Cl)cc1)=N[C@@H](CC(=O)N1CCC(C#CC#CCNCCOCCOCCOCCOCCOCCOCCNC(=O)CCNC(=O)c3nc(NC(=O)CCNC(=O)c4cc(NC(=O)c5nc(NC(=O)CCNC(=O)c6cc(NC(=O)c7nccn7C)cn6C)cn5C)cn4C)cn3C)CC1)c1nnc(C)n1-2` [Compound 78] gave an EC50 of less than 100 nM.
Work on `Cc1sc2c(c1C)C(c1ccc(Cl)cc1)=N[C@@H](CC(=O)NC1CCN(C(C)(C)C#CC#CC3CCN(CCOCCOCCOCCOCCOCCNC(=O)CCNC(=O)c4nc(NC(=O)CCNC(=O)c5cc(NC(=O)c6nc(NC(=O)CCNC(=O)c7cc(NC(=O)c8nccn8C)cn7C)cn6C)cn5C)cn4C)CC3)CC1)c1nnc(C)n1-2` [Compound 151] yielded an EC50 of less than 100 nM.
With `Cc1cc(F)cc(C)c1Oc1ccc(C(C)(C)O)cc1-c1cn(C)c(=O)c2[nH]c(C(=O)N3CCC(CN4CCN(CCOCCOCCOCCOCCOCCOCCNC(=O)CCNC(=O)c5nc(NC(=O)CCNC(=O)c6cc(NC(=O)c7nc(NC(=O)CCNC(=O)c8cc(NC(=O)c9nccn9C)cn8C)cn7C)cn6C)cn5C)CC4)CC3)cc12` [Compound 168] the EC50 was 100 to 500 nM.
`Cc1sc2c(c1C)C(c1ccc(Cl)cc1)=N[C@@H](CC(=O)Nc1ccc(N3CCN(CCOCCOCCOCCOCCOCCOCCNC(=O)CCNC(=O)c4nc(NC(=O)CCNC(=O)c5cc(NC(=O)c6nc(NC(=O)CCNC(=O)c7cc(NC(=O)c8nccn8C)cn7C)cn6C)cn5C)cn4C)CC3)cc1)c1nnc(C)n1-2` [Compound 3] gave an EC50 of less than 100 nM.
For `Cc1sc2c(c1C)C(c1ccc(Cl)cc1)=N[C@@H](CC(=O)NC1CCN(CCCCCN3CCN(CCOCCOCCOCCOCCOCCNC(=O)CCNC(=O)c4nc(NC(=O)CCNC(=O)c5cc(NC(=O)c6nc(NC(=O)CCNC(=O)c7cc(NC(=O)c8nccn8C)cn7C)cn6C)cn5C)cn4C)CC3)CC1)c1nnc(C)n1-2` [Compound 107], the EC50 was 100 to 500 nM.
`Cc1sc2c(c1C)C(c1ccc(Cl)cc1)=N[C@@H](CC(=O)N[C@H]1CC[C@H](N(C)CCOCCOCCOCCOCCOCCOCCOCCOCCNC(=O)CCNC(=O)c3nc(NC(=O)CCNC(=O)c4cc(NC(=O)c5nc(NC(=O)CCNC(=O)c6cc(NC(=O)c7nccn7C)cn6C)cn5C)cn4C)cn3C)CC1)c1nnc(C)n1-2` [Compound 22] showed an EC50 of less than 100 nM.
In the case of `Cc1sc2c(c1C)C(c1ccc(Cl)cc1)=N[C@@H](CC(=O)N1CCC(C#CC#CC3CCN(CCOCCOCCOCCNC(=O)CCNC(=O)c4nc(NC(=O)CCNC(=O)c5cc(NC(=O)c6nc(NC(=O)CCNC(=O)c7cc(NC(=O)c8nccn8C)cn7C)cn6C)cn5C)cn4C)CC3)CC1)c1nnc(C)n1-2` [Compound 139], the EC50 was less than 100 nM.
